Assay results: US20100298377A1, “NOVEL SUBSTITUTED INDAZOLES, THE PREPARATION THEREOF AND USE OF SAME IN THERAPEUTICS” (SANOFI-AVENTIS, priority 2007, published 2010)

Columns and labels:
[1] = test system: C-433 cells (human Ewing sarcoma cells); experiment: Proliferation of C-433 cells, intracellular ATP, CellTiter-Glo test; type: cell-based; settings: Homo sapiens, 96 hours
From the text: b. Study of the Proliferation of Human Tumoral MIA PaCa-2, C-433, LnCaP and MCF7 Cells via Assay of the Intracellular ATP Using the Celltiter-Glo™ Test
The kit CellTiter-Glo™ for measuring cell viability via luminescence ([…]) is a homogeneous method for determining the number of viable cells in culture, based on quantification of the ATP present in the cells, and which indicates the presence of metabolically active cells.
The cell lines used in this test were the following: MIA PaCa-2 cells (human pancreatic carcinoma cells, ATCC, CRL-1420), C-433 cells (human Ewing sarcoma cells, DSMZ, ACC 268), LNCaP clone FGC cells (human prostate carcinoma cells, ATCC, CRL-1740), MCF7 cells (human breast carcinoma cells, ECACC, #86012803). The cells MIAPaCa-2 and LNCaP were cultured in D-MEM culture medium (Invitrogen Gibco, #419656-039) containing 10% foetal calf serum (FCS, Invitrogen Gibco, #10500-064) and 2 mM L-Glutamine (Invitrogen Gibco, #25030-024); the C-433 cells were cultured in MCCoy's 5A culture medium (Invitrogen Gibco, #26600-023)/RPMI 1640 (Invitrogen Gibco, #31870-025) (50/50) containing 10% FCS and 2 mM L-glutamine; the MCF7 cells were cultured in EMEM culture medium (EMEM, Biowhittaker, Lonza, #BE12-662F) containing 10% FCS and 2 mM L-Glutamine.
Evaluation of the Cell Viability via Luminescence Measurement: Celltiter-Glo™ Test
On day 1, the cells were inoculated at 1000 (C-433), 2500 (MCF7) and 10000 (LNCaP and MIA PaCa-2) cells per well in black-bottomed 96-well microplates (NUNC fluoronunc, Fisherbioblock 2311K) in 135 μl of whole culture medium and incubated at 37° C., 5% CO2, for 3 to 6 hours. The cells were then incubated with increasing concentrations of molecules diluted in dimethyl sulfoxide (DMSO, Sigma D2650). The molecules were added in a volume of 15 μl of a 10-fold concentrated solution in a final volume of 150 μl, the final percentage of DMSO being 0.1%. The cells were incubated at 37° C., 5% CO2, for 96 hours. After 4 days of treatment with the molecules, the CellTiter-Glo™ was performed by following the manufacturer's instructions (Kit Celltiter-Glo Luminescent, PROMEGA #G7571). Briefly, the cell plates were equilibrated for about 30 minutes at RT and 100 μl per well of Celltiter-Glo reagent were added. The cells were incubated for 1 hour at RT for lysis of the cells and stabilization of the signal. The intracellular ATP was quantified by measuring the luminescence in rlu units (relative luminescence units), 96 hours after initiation of the treatment, using a luminescence counter (Wallac). The tests were performed in six replicates.
i) the mean±s.e.m. of each series of well replicates was calculated;
ii) the maximum response is given by positive control wells containing untreated cells; this control was performed in 12 replicates;
iii) the minimum response is given by cell-free and untreated negative control wells; this control was performed in 6 replicates;
iv) using these maximum (100%) and minimum (0%) response values, respectively, the data were normalized to give a percentage relative to the maximum response;
The IC50 values were calculated by […] with the XLfit software (IDBS, UK) using formula 205.

Row | IC50 [1] | melting point | SMILES
1 | 1790 nM | – | O=C(Nc1ccc2[nH]ncc2c1)O[C@@H](c1ccc(Cl)c(Cl)c1)[C@@H]1CCCCN1 [Ex 38b, (S)-(3,4-Dichlorophenyl)[(2S)-piperid-2-yl]methyl 1H-indazol-5-ylcarbamate]
2 | 680 nM | 216 °C | O=C(Nc1ccc2[nH]ncc2c1)N[C@@H](c1ccc(Cl)c(Cl)c1)[C@@H]1CCCCN1 [Ex 4, 1-{(S)-(3,4-Dichlorophenyl)[(2S)-piperid-2-yl]methyl}-3-(1H-indazol-5-yl)urea]
3 | – | 185 °C | O=C(Nc1ccc2[nH]ncc2c1)NC(c1cc(F)cc(Cl)c1)C1CCCCN1 (stereo not shown) [Ex 5, 1-[(3-Chloro-5-fluorophenyl)(piperid-2-yl)methyl]-3-(1H-indazol-5-yl)urea]
4 | 630 nM | – | O=C(Nc1ccc2[nH]ncc2c1)N[C@@H](c1cc(F)cc(Cl)c1)[C@@H]1CCCCN1 [Ex 3, 1-{(S)-(3-Chloro-5-fluorophenyl)[(2S)-piperid-2-yl]methyl}-3-(1H-indazol-5-yl)urea]
5 | 288 nM | – | CN1CCCCC1C(NC(=O)Nc1ccc2[nH]nc(C#Cc3cccnc3)c2c1)c1ccccc1 [Ex 25, 1-[(1-Methylpiperid-2-yl)(phenyl)methyl]-3-[3-(pyrid-3-ylethynyl)-1H-indazol-5-yl]urea((S,2S),(R,2R))]
6 | 500 nM | – | O=C(Nc1ccc2[nH]ncc2c1)O[C@@H](c1cccc(Br)c1)[C@@H]1CCCCN1 [Ex 46]
